Laboratory results taken from publication PMC10310857 (Nature Communications, 2023).
“And” between values parts separate entries of the source, which are not always exact repeats. Equal entries are not always repeated.

Experiments:
[1] = tested on: GhRbohD; design: species or system Gossypium hirsutum cv. Lvmian; settings: in vivo
[2] = tested on: GhMPK6; design: species or system Gossypium hirsutum cv. Lvmian; settings: in vivo

O=C(NO)c1ccccc1 [Compound 1, benzohydroxamic acid]
GhRbohD expression in cotton roots (Fig. 3f) Mean [1]: 6.888 and 6.864 and 7.067 and 8.206 | GhMPK6 expression in cotton roots (Fig. 3e) Mean [2]: 2.326 and 2.211 and 2.747 and 2.402
